Data on nine compounds can be found in paper PMC10587159, “Biosynthesis and engineering of the nonribosomal peptides with a C-terminal putrescine” (Nature Communications, 2023).

Series [1] deals with human lung epithelial normal cell 2B. Kind of series: cells. In kind it is cell-based. The source says:
(§1) The two human acute lymphoblastic leukemia cells K562 and Kasumi, two human breast adenocarcinoma cells MCF7 and MDA-MB-231, human hepatoma cell HepG-2, human lung adenocarcinoma cell A549, human gastric cancer cell SGC-7901, human colon cancer cell HCT-116, human ovarian cancer cell line SKOV3, or human lung epithelial normal cell 2B were obtained from Beyotime Biotechnology and utilized to test the cytotoxicity of compounds by MTT assays as previous study. The anti-inflammatory effect of the compounds was detected by the influence on the increase in the level of nitric oxide caused by lipopolysaccharide (LPS) based on the classic Griess method. RAW 264.7 cells (Shanghai Institutes for Biological Science) were seeded in 96-well plates and incubated for 24 h. Then, cells were treated with compounds 29, 29a, 31, and 31a (0-80 μM) for 30 min, followed by co-treatment with LPS ([…]) for another 24 h. The Nitric Oxide assay kit with Griess reagents (Beyotime, Lot: S0021, Shanghai, China) was used to examine cellular supernatant nitrite accumulation, which represents cellular NO levels. The OD value of 540 nm absorbance was detected with a microplate reader. Their authentication in the laboratory was performed regularly based on morphology and gene/protein expression. The tested micro-organisms including Gram-negative bacteria E. coli ATCC 35218 and Pseudomonas aeruginosa ATCC 27853, and Gram-positive bacteria Staphylococcus aureus ATCC 29213 and B. subtilis ATCC 6633, and fungi Candida albicans, Rhizoctonia solani and Aspergillus fumigatus were treated with different concentrations of compounds (1 μM, 10 μM, 100 μM) using Bauer-Kirby disk diffusion method to evaluate the antimicrobial activities.

Series [2] deals with human hepatoma cell HepG-2. Kind of series: cells. Type of series: cell-based.
Description: as §1

Series [3] deals with human breast adenocarcinoma cells MDA-MB-231. Kind of series: cells. In kind it is cell-based.
Description: as §1

The subject of another series is PvdQ-like acylase GdnD. Kind of series: Deacylation by acylase GdnD (cell lysate, LC-MS). In kind it is biochemical, Schlegelella brevitalea DSM 7029. The following applies: 100 μL E. coli cell lysate with GdnD, 5 μL 10 mM substrate, 30 °C; 7 and 8: 4 h, 16 h, 27 h; other substrates 16 h; boiled lysate as control. The method, then:
The hydrolysis function of PvdQ-like acylase GdnD was tested. GdnD is predicted to be a periplasmic protein by PSORTb[13]. The collected pellet from 50 mL LB dissolved with 8 mL buffer C (50 mM Tris, 300 mM NaCl, 5 mM MgCl2, pH 7.6), and lysed by cell disruption. Then, one hundred microliter of the cell lysate was incubated with 5 μL 10 mM substrates 7 and 8 for 4 h, 16 h, and 27 h at 30 °C. The negative control was boiled cell lysate. The other substrates (13, 14, 15, 16, and 17) incubated with the cell lysate dealt for 16 h at 30 °C. Then, the reaction was stopped by the addition of the 100 μL MeOH, and the final mixture was checked by LC‒MS analysis (5%‒95% ACN in 15 min) according to the above condition.

In series [4] the test system is S. brevitalea DSM 7029 wild type. Kind of series: Biofilm formation of DSM 7029 wild type with compounds (crystal violet). In kind it is cell-based, Schlegelella brevitalea DSM 7029. The following applies: relative to wild type treated with H2O = 100%; crystal violet 0.1%, OD600; mean of n = 3. The method, then:
The growth curve was tested by Bioscreen C (Labsystems, Finland) as follow. Overnight culture was inoculated into 400 μL fresh CYMG medium in the ratio of 1:100 (the concentration of compounds was 0.1 μg/μL) and shook in normal speed. The OD600 value was gained in every hour for 42 h in total. Biofilm formation was measured at 18 h and 36 h respectively, as reported previously. In brief, the free-floating cells were removed, and the microtitre plate was washed with PBS (pH 7.4) after incubation for 18 h and 36 h. The biofilm was stained by adding 200 µL of crystal violet (0.1%) solution. Crystal violet solution was removed after 15 min and 200 µL of ethanol (95%) was added. The absorbance at OD600 was read using a microplate reader (Infinite M200, Tecan, Männedorf, Switzerland). Meanwhile, free-floating cells were used to test the secretion of pigment. The bacteria were removed and the supernatant was measured at OD600.

The test system of series [5] is human lung adenocarcinoma cell A549. Kind of series: MTT cytotoxicity assay, A549. In kind it is cell-based.
Description: as §1
For orientation: Formazan colour is commonly taken as a measure of viable cells.

Series [6] concerns C13 domain of GdnB fragments and mutants. Kind of series: Condensation of T12-linked L-Ala with Put or other diamines (yield of 24a-27a, LC-MS). The following applies: Average of n = 3. In kind it is biochemical, Schlegelella brevitalea DSM 7029. The method, then: In vitro assays for the different enzymes of the C-terminal multi-domains were performed. Reaction buffer contained 80 μM protein, 3 μM Sfp from B. subtilis, 200 μM CoA, 2.5 mM L-Ala and 5 mM ATP was incubated at 30 °C for 30 min. Then, 2.5 mM diamines or polyamines (i.e. putrescine, 1,7-diaminoheptane, 1,6-diaminohexane, 1,5-diaminopentane, 1,2-diaminocyclohexane, spermine, and spermidine, respectively) was added to make final volume of 200 μL. The reaction was further incubated at 30 °C for 1 h or 4 h. Triple amount of cold methanol was added to quench the reaction, and the supernatant was dried by SpeedVac after removed the precipitate at 10,000 × g for 8 min. The reaction mixture was dissolved with 200 μL ddH2O, and then the mixture was derived with D-FDAA according to the procedure of the above Marfey’s analysis. The final reaction mixture was suspended using 100 μL 2 M HCl, which subsequently was dried by SpeedVac. Finally, the mixture dissolved with 100 μL MeOH to detect the target products (24a, 25a, 26a, and 27a) using LC‒MS analysis (5%‒95% ACN in 15 min).

For series [7], the system named is human ovarian cancer cell line SKOV3. Kind of series: cells. In kind it is cell-based.
Description: as §1

For a further series, the system named is tumor lines. Kind of series: MTT cytotoxicity assay, statements on the whole panel. In kind it is cell-based, human.
Description: as §1

Series [8] deals with human colon cancer cell HCT-116. Kind of series: cells. In kind it is cell-based. The following applies: Homo sapiens, HCT-116; MTT assay; Supplementary Table 11; read-out: IC50 HCT116.
Description: as §1

Series [9] concerns human breast adenocarcinoma cells MCF7. Kind of series: cells. Type of series: cell-based. Conditions: Homo sapiens, MCF7; MTT assay; Supplementary Table 11; read-out: IC50 MCF-7.
Description: as §1

Series [10] relates to human acute lymphoblastic leukemia cells K562. Kind of series: cells. In kind it is cell-based. Conditions: Homo sapiens, K562; MTT assay; Supplementary Table 11; read-out: IC50 K562.
Description: as §1

Series [11] relates to human gastric cancer cell SGC-7901. Kind of series: cells. Type of series: cell-based. The following applies: Homo sapiens, SGC-7901; MTT assay; Supplementary Table 11; read-out: IC50 SGC-7901.
Description: as §1

The subject of a further series is human cells Kasumi. Kind of series: MTT cytotoxicity assay, Kasumi. Type of series: cell-based. Conditions: Homo sapiens; MTT assay; Supplementary Table 11; read-out: IC50 Kasumi.
Description: as §1

Like-named read-outs stand apart in the source and are kept apart here. Non-standard residues stand in square brackets, D forms with d. Residues, ends and D or L forms follow the SMILES beside them. *: point of attachment. dMet(O) = CS(=O)CC[C@@H](N)C(=O)O; Lauroyl = CCCCCCCCCCCC(=O)*; Octanoyl = CCCCCCCC(=O)*; NH(CH2)4NH2 = NCCCCN* Bounds are passed on as bounds.

Consider `CCCCCCCCCCCC(=O)N[C@H](CC[S+](C)[O-])C(=O)N[C@H](CC(N)=O)C(=O)N1CCC[C@H]1C(=O)N[C@H](C(=O)N[C@H](Cc1ccccc1)C(=O)N1CCC[C@H]1C(=O)N[C@@H](Cc1c[nH]c2ccccc12)C(=O)N[C@@H](C(=O)N[C@@H](C)C(=O)N[C@H](C)C(=O)N[C@@H](CO)C(=O)N[C@@H](C)C(=O)NCCCCN)C(C)C)C(C)C` (some centres unmarked) [Compound 8, Glidonin H] (Lauroyl-[dMet(O)][dN]PV[dF]PW[dV]A[dA]SA-{NH(CH2)4NH2}), for which the IC50 in [1] (24 h), in series [2] (24 h), in [3] (24 h) and in [5] (24 h) was above 20 µM throughout. For the same compound, in the series on PvdQ-like acylase GdnD, the “deacylation by GdnD, nonacylated product by LC-MS” value is “nonacylated products 1 and 2 were detected”. Further, the “biofilm formation 18 h, Average” value in series [4] is recorded as 153.143%. The “biofilm formation 36 h, Average” value in [4] came to 147.847%.
On to `CC(N)C(=O)NCCCCNc1cc(NC(C)C(N)=O)c([N+](=O)[O-])cc1[N+](=O)[O-]` [Compound 24a, L-Ala-Put-FDAA], for which the “L-Ala condensing with Put, 1,5-diaminopentane, 1,6-diaminohexane, and 1,7-diaminoheptane (Relative Yield of product)” value came out at 100 in [6] (protein A12T12) and 1640 in series [6] (protein A12T12C13A*T13).
The like results for `CC(N)C(=O)NCCCCCNc1cc(NC(C)C(N)=O)c([N+](=O)[O-])cc1[N+](=O)[O-]` (centres unmarked) [Compound 25a] were, in that order, 100 and 794.339.
For `CC(N)C(=O)NCCCCCCCNc1cc(NC(C)C(N)=O)c([N+](=O)[O-])cc1[N+](=O)[O-]` (centres unmarked) [Compound 27a], in that order: 100 and 248.895.
As for `CCCCCCCC(=O)N[C@@H](CC(C)C)C(=O)N[C@H](C(=O)N[C@@H](Cc1ccc(O)cc1)C(=O)N[C@H](C)C(=O)N[C@@H](C)C(=O)N[C@H](C)C(=O)N[C@H](C(=O)NCCCCN)C(C)C)[C@@H](C)O` [Compound 29] (Octanoyl-LTY[dA]A[dA]V-{NH(CH2)4NH2}), the IC50 (commonly the concentration needed to halve the response being measured) was 102.4 ± 0.25 µM in series [1] (24 h); 265.5 ± 2.43 µM in [2] (24 h); 110 ± 2.6 µM in [3] (24 h); 81.4 ± 1.02 µM in [7] (24 h); above 40 µM with tumor lines (24 h); 39.92 ± 0.15 µM in series [5] (24 h). Moreover, the “cytotoxic / antitumor activity in words” value with tumor lines was “higher anti-inflammatory and antitumor activities than 29a and 31a”.
For `CCCCCCCC(=O)N[C@@H](CC(C)C)C(=O)N[C@H](C(=O)N[C@@H](Cc1ccc(O)cc1)C(=O)N[C@H](C)C(=O)N[C@@H](C)C(=O)N[C@H](C)C(=O)N[C@H](C(=O)O)C(C)C)[C@@H](C)O` [Compound 29a, octanoyl-L-Leu-L-Thr-L-Tyr-D-Ala-L-Ala-D-Ala-L-Val] (Octanoyl-LTY[dA]A[dA]V-OH), the IC50 amounted to 269.4 ± 1.23 µM in [1] (24 h), 267.5 ± 0.01 µM in series [2] (24 h), 161 ± 3.67 µM in series [7] (24 h) and 82.2 ± 2.58 µM in [5] (24 h).
Turning to `CCCCCCCC(=O)N[C@H](C(=O)N[C@@H](Cc1ccccc1)C(=O)N[C@@H](CCC(=O)O)C(=O)N[C@H](C(=O)N[C@@H](C)C(=O)O)[C@@H](C)CC)C(C)C` [Compound 31a] (Octanoyl-VFEIA-OH; C-terminus assumed), the IC50 in series [1] (24 h) worked out at 92.26 ± 0.03 µM; in series [2] (24 h), 94.29 ± 0.19 µM; in series [3] (24 h), 200.5 ± 0.07 µM; in series [5] (24 h), 453.4 ± 0.68 µM. Also, the “IC50 SKOV3” value in [7] (MTT assay, Supplementary Table 12, n.s. indicates negative significance) is recorded as “n.s”.
On to `COc1cccc2c1C(=O)c1c(O)c3c(c(O)c1C2=O)C[C@@](O)(C(=O)CO)C[C@@H]3O[C@H]1C[C@H](N)[C@H](O)[C@H](C)O1` [doxorubicin, reference compound], for which the IC50 in series [1] (Homo sapiens, MTT assay, normal cell, Supplementary Table 11, read-out: IC50 2B) was determined as 1.32 ± 0.11 µM; in series [1] (Homo sapiens, MTT assay, normal cell, Supplementary Table 12, read-out: IC50 2B) it was 1.34 ± 0.09 µM; in series [2] (Homo sapiens, HepG2, MTT assay, Supplementary Table 11, read-out: IC50 HepG2), 3.21 ± 0.67 µM; in [2] (Homo sapiens, HepG2, MTT assay, Supplementary Table 12, read-out: IC50 HepG-2) it was 0.23 ± 0.02 µM; in series [8], 0.59 ± 0.04 µM; in series [9] it was 2.6 ± 0.34 µM. Moreover, the IC50 in series [10] amounted to 0.79 ± 0.34 µM; in series [3] (Homo sapiens, MDA-MB-231, MTT assay, Supplementary Table 11, read-out: IC50 MDA-MB-231), 0.63 ± 0.07 µM; in series [3] (Homo sapiens, MDA-MB-231, MTT assay, Supplementary Table 12, n.s. indicates negative significance, read-out: IC50 MDA-MB-231), 0.91 ± 0.05 µM; in series [7] (Homo sapiens, SK-OV-3, MTT assay, Supplementary Table 12, n.s. indicates negative significance, read-out: IC50 SKOV3), 1.29 ± 0.01 µM; in series [11], 0.14 µM; with human cells Kasumi, 0.42 ± 0.1 µM. Moreover, the IC50 in series [5] (Homo sapiens, A549, MTT assay, Supplementary Table 11, read-out: IC50 A549) amounted to 0.82 ± 0.25 µM; in [5] (Homo sapiens, A549, MTT assay, Supplementary Table 12, read-out: IC50 A549), 0.73 ± 0.05 µM.
Turning to “C14-Rhizomide A [Compound 17, reference compound]”, the “deacylation by GdnD, nonacylated product by LC-MS” value with PvdQ-like acylase GdnD is given as “could remove myristoyl”.
